Laboratory results published in patent US20040127403A1, “Methods for treating and preventing Gram-positive bacteremias” (priority 2002, published 2004).

What was measured:
peptidoglycan synthesis = test: Macromolecular biosynthesis (carbon-14 precursor incorporation); assay type: cell-based; conditions: ramoplanin at the MIC
Procedure: The efficacy of ramoplanin was tested against recently isolated VRE that are resistant to linezolid and quinupristin/dalfopristin. The culture media containing ramoplanin was supplemented with 0.02% bovine serum albumin (BSA) to prevent ramoplanin binding to the plastic. MIC values were determined in both cation-adjusted Mueller-Hinton broth (CAMHB) and trypticase soy broth (TSB) by the National Committee for Clinical Laboratory Standards (NCCLS) broth microdilution method. Macromolecular biosynthesis experiments were done by following the incorporation of carbon-14-labeled N-acetylglucosamine, acetic acid, amino acids, uridine, and thymidine into peptidoglycan, fatty acid, protein, RNA and DNA, respectively.

[1] = Storage stability of ramoplanin granules and reconstituted solution; assay type: physicochemical; conditions: refrigerated conditions
Procedure: Ramoplanin is available as granules for oral solution, provided, for example, in packets containing 400 mg free base of ramoplanin, along with pharmaceutically acceptable excipients (e.g., mannitol, hydroxypropyl methylcellulose, magnesium stearate). The contents of the packet can be reconstituted with approximately 15-30 mL of water, and the resulting solution either consumed directly, or further diluted with water, cranberry juice, apple juice, or 7-Up prior to drinking. After consumption, the drug may be followed with subsequent amounts of these beverages or with food (e.g., cracker, bread). […] The reconstituted ramoplanin aqueous solution has a shelf life of 48 hours when stored at refrigerated conditions.

[2] = Single dose study in healthy male volunteers: absorption and fecal recovery; assay type: in vivo, human
Procedure: The absorption, tolerability, and recovery of ramoplanin following single dose oral administration were investigated in male volunteers. Ramoplanin was administered as an aqueous solution at a dose of 100, 200, 500, or 1000 mg to fasting subjects. Serum samples were obtained prior to drug administration of ramoplanin and 0.5, 1, 2, 3, 6, 9, 12, 24, 48, 72, and 96 hours after treatment. Urine samples were collected prior to administration of ramoplanin and over the periods 0-3, 3-6, 6-12, 12-24, 24-48, 48-72, and 72-96 hours after dosing. Fecal samples were collected prior to dosing and over the periods 0-16 (Day 1), 16-40 (Day 2), 40-64 (Day 3), 64-88 (Day 4), and 88-96 (Day 5) hours after dosing. A microbiological assay employing Bacillis subtilis ATCC 6633 as the test organism was used to determine ramoplanin concentrations in serum, urine, and feces. The limits of quantitation for this assay were 0.02 μg/mL in serum, 0.012 μg/mL in urine, and 3 μg/g in feces. Tolerability was assessed on the basis of clinical signs and symptoms and the results of blood and urine laboratory tests.

VRE = test: Multiple dose study in asymptomatic carriers of intestinal VRE; assay type: in vivo, human; conditions: for patients with no detectable VRE, number / patients with no detectable VRE: Day 7; for patients with no detectable VRE: rectal swab; for patients VRE free: Day 14 (seven days after cessation); for patients VRE free, number: Day 14
Procedure: Patients identified as asymptomatic carriers of VRE were administered placebo or one of two dosages (100 mg, 400 mg) of ramoplanin b.i.d. (twice daily) for seven days. Patients were assessed by rectal swab on Days 7, 14, and 21 to determine the presence or absence of VRE. On Days 45 and 90, stool samples were analyzed for long-term effects of ramoplanin on the recurrence of, or re-infection with, VRE. All VRE isolates were tested for susceptibility to ramoplanin.

[3] = Oral bioavailability and pharmacokinetics in the rat; assay type: in vivo
Procedure: The oral availability of ramoplanin was assessed by comparing a 1000 mg/kg oral dose with a 5 mg/kg intravenous dose in the rat. […] The mean absorption time was 3.4 hours. […] Terminal elimination half-lives were 3.5 and 5.9 hours for the intravenous and oral doses, respectively. […] In intravenously treated rats, the amount excreted in urine represented less than 0.01% of the administered dose.

[4] = Multiple dose study in healthy male volunteers: absorption and fecal concentrations; assay type: in vivo, human
Procedure: Healthy male volunteers were administered 200, 400, or 800 mg ramoplanin twice-a-day, for ten consecutive days. The predetermined dose was reconstituted in 5 mL water per vial, mixed with 50 mL of sweetened, aromatized solution, and immediately administered orally to the subjects.
No absorption from the human gastrointestinal tract was observed.

[5] = Bioavailability and serum pharmacokinetics in Beagle dogs; assay type: in vivo
Procedure: The bioavailability of a 300 mg/kg ramoplanin oral gelatin capsule and the serum pharmacokinetics of a 5 mg/kg intravenous dose were examined in four male Beagle dogs.

Substance: Ramoplanin
- first macromolecular biosynthetic pathway inhibited (peptidoglycan synthesis): peptidoglycan synthesis
- storage stability ([1]; 400 mg granulated powder packets): stable for at least one year
- shelf life ([1]; reconstituted ramoplanin aqueous solution): 48 h
- subjects with ramoplanin still detectable in feces ([2]; fourth day of study, single oral dose): 17 of 24
- ramoplanin in serum/plasma or urine ([2]; healthy male volunteers, single oral doses up to 1000 mg and multiple oral doses 200, 400, 800 mg B.I.D. 10 days, bioassay and HPLC): not detected
- Mean cumulative recovery of ramoplanin in feces ([2]; single oral dose 100 mg): 67.7 % of the administered dose
- Mean maximum concentration in feces ([2]; single oral dose 100 mg): 214 µg/g
- cumulative recovery of ramoplanin in feces, range ([2]; single oral dose 100 mg): 55.7-84 % of the administered dose
- maximum concentration in feces, range ([2]; single oral dose 100 mg): 148 to 278 µg/g
- Mean cumulative recovery of ramoplanin in feces ([2]; single oral dose 200 mg): 48.5 % of the administered dose
- Mean maximum concentration in feces ([2]; single oral dose 200 mg): 287 µg/g
- cumulative recovery of ramoplanin in feces, range ([2]; single oral dose 200 mg): 39.3-56.5 % of the administered dose
- maximum concentration in feces, range ([2]; single oral dose 200 mg): 164 to 454 µg/g
- Mean cumulative recovery of ramoplanin in feces ([2]; single oral dose 500 mg): 52.8 % of the administered dose
- Mean maximum concentration in feces ([2]; single oral dose 500 mg): 1655 µg/g
- cumulative recovery of ramoplanin in feces, range ([2]; single oral dose 500 mg): 41.3-79.6 % of the administered dose
- maximum concentration in feces, range ([2]; single oral dose 500 mg): 737 to 3316 µg/g
- Mean cumulative recovery of ramoplanin in feces ([2]; single oral dose 1000 mg): 46.4 % of the administered dose
- Mean maximum concentration in feces ([2]; single oral dose 1000 mg): 1835 µg/g
- cumulative recovery of ramoplanin in feces, range ([2]; single oral dose 1000 mg): 39.9-58.4 % of the administered dose
- maximum concentration in feces, range ([2]; single oral dose 1000 mg): 1336 to 3154 µg/g
- time of maximum ramoplanin concentration and maximum percentage recovery in feces ([2]; single oral dose 100-1000 mg): the day after administration (Day 2)
- patients with no detectable VRE, number (VRE; 100 mg b.i.d. for seven days): 17 of 21
- patients with no detectable VRE (VRE; 100 mg b.i.d. for seven days): 81.0%
- patients with no detectable VRE, number (VRE; 400 mg b.i.d. for seven days): 18 of 20
- patients with no detectable VRE (VRE; 400 mg b.i.d. for seven days): 90.0%
- patients VRE free (VRE; 100 mg b.i.d.): 28.6%
- patients VRE free (VRE; 400 mg b.i.d.): 41.2%
- patients VRE free, number (VRE; 100 mg b.i.d.): 6 of 21
- patients VRE free, number (VRE; 400 mg b.i.d.): 7 of 17
- number of VRE-free patients (VRE; Day 21): comparable among all treatment groups
- amount excreted in urine ([3]; intravenously treated rats): less than 0.01 % of the administered dose
- distribution ([3]; rat): not widely distributed outside the central compartment
- volume of distribution at steady state ([3]; rat): 0.75 L/kg
- volume of the central compartment ([3]; rat): 0.42 L/kg
- time of maximum observed serum concentration ([3]; rat, 5 mg/kg intravenous): 0.083 h
- Maximum observed serum concentration ([3]; rat, 1000 mg/kg oral): 2.8 µg/mL
- mean absorption time ([3]; rat, 1000 mg/kg oral): 3.4 h
- time of maximum observed serum concentration ([3]; rat, 1000 mg/kg oral): 0.5 h
- absolute bioavailability (F) ([3]; rat, 1000 mg/kg oral relative to 5 mg/kg intravenous): 0.18%
- Terminal elimination half-life ([3]; rat, intravenous dose): 3.5 h
- Terminal elimination half-life ([3]; rat, oral dose): 5.9 h
- absorption from the human gastrointestinal tract ([4]; 200, 400 or 800 mg twice-a-day, ten days): No absorption
- urine levels of ramoplanin ([4]; Day 1 and 5 and pooled urine up to 72-96 after the last dose): No levels were found in urine
- average fecal concentration of ramoplanin ([4]; Day 3, 200 mg twice-a-day): 827 µg/g
- average fecal concentration of ramoplanin ([4]; Day 3, 400 mg twice-a-day): 1742 µg/g
- average fecal concentration of ramoplanin ([4]; Day 3, 800 mg twice-a-day): 1901 µg/g
- average fecal concentration of ramoplanin ([4]; Day 10, 200 mg twice-a-day): 949 µg/g
- average fecal concentration of ramoplanin ([4]; Day 10, 400 mg twice-a-day): 1417 µg/g
- average fecal concentration of ramoplanin ([4]; Day 10, 800 mg twice-a-day): 2647 µg/g
- serum levels of ramoplanin ([4]; Days 1, 5 and 10, hour 0.5-12 after the morning dose): no serum levels of ramoplanin were detected
- fecal concentrations post-treatment ([4]; four days post-treatment): remained detectable in some subjects
- cumulative recovery in feces ([4]; up to Day 4 post-treatment): 25 % of the administered dose
- distribution to tissues [5]: not distributed widely to tissues
- mean absorption time ([5]; 300 mg/kg oral gelatin capsule): 8.19 ± 3.12 h
- absolute bioavailability ([5]; 300 mg/kg oral gelatin capsule vs 5 mg/kg intravenous): less than 1%
